The text below walks through data of PubChem BioAssay (NCI).

Among the test systems are EKVX NSCLC; OVCAR-5 ovarian; UACC-62 melanoma; SW-620 colon; RXF 393 renal; HT29 colon; KM12 colon; LOX IMVI melanoma; SK-MEL-28 melanoma; NCI-H226 lung.
Assay in all cases: NCI-60 cell line screen, 48 h

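Dose response: 5 concentrations. Exposure: 48 h. Format: 96-well plates. Endpoint: linear interpolation; highest concentration if not reached. At the GI50, growth is halved. The concentration for full growth arrest is given as TGI.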

Take `N/C(=N\c1nc2ccccc2s1)NC(=O)Nc1ccccc1Cl`: the GI50 is 0.427 µM in the experiment with EKVX NSCLC; 0.379 µM in the experiment on OVCAR-5 ovarian; 0.125 µM with UACC-62 melanoma; 0.0883 µM in the experiment with SW-620 colon; 0.0983 µM in the experiment with RXF 393 renal; 0.105 µM in the experiment on HT29 colon. Also, the GI50 in the experiment with KM12 colon was 0.127 µM; in the experiment on LOX IMVI melanoma, 0.144 µM; in the experiment on SK-MEL-28 melanoma it was 3.59 µM; in the experiment with NCI-H226 lung, 0.429 µM. Also, the TGI in the experiment with EKVX NSCLC is more than 100 µM; in the experiment with OVCAR-5 ovarian it was 26.8 µM; in the experiment with UACC-62 melanoma, more than 78.9 µM; in the experiment on SW-620 colon it was more than 52.3 µM; in the experiment on RXF 393 renal it was 1.56 µM; in the experiment on HT29 colon, 6.31 µM. Also, the TGI in the experiment with KM12 colon is 12 µM; in the experiment with LOX IMVI melanoma, 5.92 µM; with SK-MEL-28 melanoma it was more than 100 µM; in the experiment with NCI-H226 lung, 19.2 µM.

Regarding `CN(C)c1ccc2cc(-c3cc4c(oc3=O)-c3ccccc3OC4O)c(=O)oc2c1` (stereo not given), the GI50 is 2.18 µM with EKVX NSCLC; 5.35 µM with OVCAR-5 ovarian; 4.08 µM with UACC-62 melanoma; 15.6 µM with SW-620 colon; 2.69 µM in the experiment with RXF 393 renal; 5.73 µM with HT29 colon. The GI50 was 6.05 µM in the experiment on KM12 colon, 3.52 µM in the experiment with LOX IMVI melanoma, 8.24 µM in the experiment on SK-MEL-28 melanoma and 3.28 µM in the experiment on NCI-H226 lung. Moreover, the TGI is more than 25 µM in the experiment on EKVX NSCLC; 12.8 µM in the experiment with OVCAR-5 ovarian; 8.53 µM with UACC-62 melanoma; more than 25 µM in the experiment on SW-620 colon; 6.53 µM in the experiment on RXF 393 renal; 21.8 µM in the experiment on HT29 colon. Further, the TGI in the experiment with KM12 colon is 16.2 µM; with LOX IMVI melanoma, 7.3 µM; in the experiment on SK-MEL-28 melanoma it was more than 25 µM; in the experiment with NCI-H226 lung, 7.08 µM.

Regarding `C=C1SC(=Nc2ccccc2Cl)N(C(=O)c2sc3ccccc3c2Cl)C1(C)C`, the GI50 in the experiment with EKVX NSCLC was 2.38 µM; in the experiment on OVCAR-5 ovarian it was 10.9 µM; in the experiment on UACC-62 melanoma it was 9.24 µM; with SW-620 colon it was 4.68 µM; with RXF 393 renal it was 16.6 µM; in the experiment on HT29 colon, 14.2 µM. For the same molecule, the GI50 in the experiment on KM12 colon is 4.01 µM; in the experiment on LOX IMVI melanoma, 9.62 µM; with SK-MEL-28 melanoma, 37.2 µM; in the experiment on NCI-H226 lung, 5.52 µM. The TGI with EKVX NSCLC was 18.2 µM; with OVCAR-5 ovarian, more than 100 µM; with UACC-62 melanoma it was more than 100 µM; in the experiment with SW-620 colon it was more than 100 µM; in the experiment with RXF 393 renal, more than 86.5 µM; with HT29 colon it was 51.7 µM. Also, the TGI in the experiment with KM12 colon was more than 51.9 µM; in the experiment with LOX IMVI melanoma, more than 100 µM; with SK-MEL-28 melanoma, more than 100 µM; with NCI-H226 lung it was more than 74.2 µM.

Consider `Cc1ccc(C(=O)CCC2C(=O)CC(C)(C)CC2=O)cc1`, for which the TGI in the experiment with EKVX NSCLC, in the experiment with OVCAR-5 ovarian, with UACC-62 melanoma, with SW-620 colon, in the experiment with RXF 393 renal and in the experiment on HT29 colon was more than 100 µM throughout. Further, the TGI with KM12 colon, in the experiment with LOX IMVI melanoma, in the experiment on SK-MEL-28 melanoma and in the experiment on NCI-H226 lung was more than 100 µM in each case.

In the case of `O=C1CC2C(=O)C1C(C(=O)O)C2C(=O)O` (stereo not given), the TGI in the experiment on EKVX NSCLC, with OVCAR-5 ovarian, in the experiment on UACC-62 melanoma, with SW-620 colon, in the experiment with RXF 393 renal and with HT29 colon was more than 100 µM each time. The TGI with KM12 colon, in the experiment with LOX IMVI melanoma, with SK-MEL-28 melanoma and in the experiment with NCI-H226 lung was more than 100 µM in each case.

As to `CN(C1=NS(=O)(=O)N=C(N(C)c2ccccc2)O1)c1ccccc1`, the TGI is 48.6 µM in the experiment with EKVX NSCLC; 47 µM with OVCAR-5 ovarian; 28 µM in the experiment on UACC-62 melanoma; 30.3 µM in the experiment on SW-620 colon; 20.4 µM in the experiment with RXF 393 renal; 54.3 µM in the experiment with HT29 colon. Besides, the TGI with KM12 colon came to 34.4 µM; in the experiment with LOX IMVI melanoma, 27.6 µM; in the experiment on SK-MEL-28 melanoma it was 43.3 µM; in the experiment on NCI-H226 lung it was 33.1 µM.

In the case of `COc1c(B(O)O)cccc1-c1nc2c(F)cc3[nH]ncc3c2c2c1CCCC2`, the GI50 in the experiment on EKVX NSCLC is 2.61 µM; in the experiment on OVCAR-5 ovarian, 2.65 µM; in the experiment with UACC-62 melanoma, 1.14 µM; with SW-620 colon, 0.604 µM; in the experiment on RXF 393 renal, 0.0459 µM; in the experiment on HT29 colon, 3.07 µM. Further, the GI50 is 1.41 µM in the experiment with KM12 colon, 0.865 µM in the experiment on LOX IMVI melanoma, 2.95 µM in the experiment on SK-MEL-28 melanoma and 1.44 µM in the experiment with NCI-H226 lung. For the same molecule, the TGI with EKVX NSCLC is 34.3 µM; with OVCAR-5 ovarian, 56.8 µM; with UACC-62 melanoma it was 9.53 µM; in the experiment on SW-620 colon, 14.4 µM; with RXF 393 renal it was 1.67 µM; in the experiment with HT29 colon, more than 44 µM. For the same molecule, the TGI with KM12 colon amounted to 11.7 µM; with LOX IMVI melanoma, 5.62 µM; in the experiment on SK-MEL-28 melanoma, 11.3 µM; with NCI-H226 lung, 22.7 µM.

`Cc1ccc(NC(=O)CC/C(CC(=O)c2ccc(Cl)cc2)=N\NC(=O)C(=O)NN)cc1C`: the TGI in the experiment on EKVX NSCLC, in the experiment on OVCAR-5 ovarian, in the experiment with UACC-62 melanoma, in the experiment on SW-620 colon, in the experiment on RXF 393 renal and in the experiment on HT29 colon was more than 100 µM throughout. Besides, the TGI in the experiment on KM12 colon, in the experiment on LOX IMVI melanoma, in the experiment with SK-MEL-28 melanoma and in the experiment with NCI-H226 lung was more than 100 µM throughout.

As to `CCN(CC)C(=O)CNC(=O)OC(C)(C)C`, the TGI in the experiment on EKVX NSCLC, in the experiment with OVCAR-5 ovarian, in the experiment with UACC-62 melanoma, in the experiment with SW-620 colon, in the experiment on RXF 393 renal and in the experiment with HT29 colon was more than 100 µM throughout. In addition, the TGI in the experiment with KM12 colon, in the experiment with LOX IMVI melanoma, in the experiment on SK-MEL-28 melanoma and in the experiment on NCI-H226 lung was more than 100 µM each time.

Regarding `O=C1/C=C/[C@@H](O)[C@@H]2C[C@@H](O)C[C@H]2/C=C/CCC[C@H](CO)O1`, the GI50 in the experiment with EKVX NSCLC is 3.11 µM; in the experiment with OVCAR-5 ovarian, 4.19 µM; with UACC-62 melanoma, 2.55 µM; in the experiment on SW-620 colon, 2.32 µM; in the experiment with RXF 393 renal, 1.61 µM; in the experiment with HT29 colon, 0.942 µM. Moreover, the GI50 with KM12 colon was 2.42 µM; in the experiment on LOX IMVI melanoma it was 0.832 µM; with SK-MEL-28 melanoma, 0.626 µM; with NCI-H226 lung it was 1.21 µM. Besides, the TGI was more than 100 µM with EKVX NSCLC; more than 100 µM with OVCAR-5 ovarian; more than 100 µM in the experiment on UACC-62 melanoma; 6.81 µM in the experiment with SW-620 colon; 5.04 µM with RXF 393 renal; 12.4 µM in the experiment with HT29 colon. Further, the TGI in the experiment with KM12 colon was more than 100 µM; in the experiment with LOX IMVI melanoma it was 3.81 µM; with SK-MEL-28 melanoma it was 3.65 µM; with NCI-H226 lung, 2.74 µM.

Consider `CCC1CCCCN1C(=S)N/N=C(\C)c1ccccn1` (stereo not given), for which the GI50 with EKVX NSCLC is 0.0728 µM; in the experiment on OVCAR-5 ovarian, 0.416 µM; with UACC-62 melanoma, 0.123 µM; with SW-620 colon it was 0.0463 µM; with RXF 393 renal, 0.488 µM; with HT29 colon, less than 0.0253 µM. The GI50 in the experiment on KM12 colon is 0.0732 µM; in the experiment with LOX IMVI melanoma, less than 0.0246 µM; with SK-MEL-28 melanoma it was 0.561 µM; in the experiment on NCI-H226 lung it was 0.561 µM. For the same molecule, the TGI is 4.8 µM in the experiment with EKVX NSCLC; 4.88 µM in the experiment with OVCAR-5 ovarian; 1.92 µM with UACC-62 melanoma; 2.76 µM in the experiment on SW-620 colon; 1.91 µM in the experiment with RXF 393 renal; 4.69 µM in the experiment with HT29 colon. For the same molecule, the TGI in the experiment with KM12 colon came out at 1.52 µM; in the experiment with LOX IMVI melanoma, 3.86 µM; with SK-MEL-28 melanoma it was 4.65 µM; in the experiment on NCI-H226 lung, 2.13 µM.

With `O=C1/C(=C/c2ccccc2)CN(CCC(=O)N2C/C(=C\c3ccccc3)C(=O)/C(=C/c3ccccc3)C2)C/C1=C\c1ccccc1`, the GI50 in the experiment with EKVX NSCLC is 18.2 µM; in the experiment with OVCAR-5 ovarian, 33.1 µM; with UACC-62 melanoma, 7.19 µM; in the experiment with SW-620 colon, 0.495 µM; in the experiment on RXF 393 renal it was 6.65 µM; in the experiment on HT29 colon it was 0.635 µM. In addition, the GI50 in the experiment on KM12 colon is 0.911 µM; in the experiment with LOX IMVI melanoma, 0.628 µM; in the experiment with SK-MEL-28 melanoma it was 23.4 µM; in the experiment with NCI-H226 lung it was 12.7 µM. Further, the TGI with EKVX NSCLC was 67.5 µM; with OVCAR-5 ovarian it was more than 91.3 µM; in the experiment on UACC-62 melanoma it was 33.9 µM; in the experiment on SW-620 colon it was 49.8 µM; in the experiment on RXF 393 renal, 19.9 µM; with HT29 colon it was more than 55.9 µM. Moreover, the TGI in the experiment with KM12 colon was found to be 7.48 µM; in the experiment with LOX IMVI melanoma, 4.32 µM; in the experiment on SK-MEL-28 melanoma it was 74.5 µM; in the experiment on NCI-H226 lung, 41.3 µM.

`COc1ccc(-c2nc(N)c3ncn(C4OC(CO)C(O)C4O)c3n2)cc1` (stereo not given): the TGI in the experiment with EKVX NSCLC, in the experiment with OVCAR-5 ovarian, in the experiment with UACC-62 melanoma, in the experiment on SW-620 colon, with RXF 393 renal and in the experiment with HT29 colon was more than 100 µM each time. Moreover, the TGI in the experiment on KM12 colon, in the experiment with LOX IMVI melanoma, in the experiment with SK-MEL-28 melanoma and in the experiment on NCI-H226 lung was more than 100 µM in each case.
